The structures appear in SMILES notation.

From patent US7144889B2, “Triarylimidazoles” (Hoffman-La Roche Inc., priority 2003, dated 2006) come the findings set out here.

The test deals with T1, c-met (Homo sapiens, UniProt P08581).
T1 construct: endogenous in cells; host or cells: HT29 (ATCC HTB-38), human colon adenocarcinoma
Nature of the test: C-met Autoactivation Kinase Assay (AKA), ELISA type assay on HT29 cell lysate. Format: biochemical. The settings on record: phosphorylation of c-met from HT29 lysate, 40 μM ATP. From the text:
C-met Autoactivation Kinase Assay (AKA)
C-met is a typical tyrosine kinase which is involved in metastasis, proliferation/apoptosis and angiogenesis of tumors. The assay is an ELISA type assay measuring the phosphorylation of c-met using a phospho-tyrosine specific antibody.
Cell lysate of human colon adenocarcinoma HT29 known for its high content of c-met is bound to the wells of a microtiterplate (MTP) via an anti-hHGF receptor antibody (anti-hHGFR). ATP-phosphorylation of c-met is detected in presence or absence of the test compounds by using a phospho-tyrosine mouse IgG and a POD labeled goat anti-mouse IgG detection system. Using the classical POD substrate TMB, an absorption at 450 nm/620 nm is used to calculate enzymatic activity.
Plates: 96-well polystyrene plates (NUNC) streptavidin-coated microtiter plates Cell line/Lysate: HT29 (ATCC HTB-38), human colon adenocarcinoma (confluence: 2.5×10^5 cells/cm^2) are washed with PBS and incubated with Lysis buffer for 10 min on ice. Supernatent is collected and diluted with TBS. Lysate is shockfrozen in liquid nitrogen and stored at −80° C.)
Reagents (all working solutions are kept at 4° C., unless stated otherwise): • anti-hHGFR detection stock solution: 50 μg/ml (R&D Systems, Cat.No. BAF 358) antibody final conc.: 1 μg/ml • p-Tyr (PY99) mouse stock solution: 200 μg/ml (Santa Cruz Biotechnology, monoclonal IgG2b Cat.No. SC-7020) final conc.: 0.2 μg/ml • goat-anti-mouse IgG: 2 ml (BIO RAD, Cat.No. 170–6516) • (H+L)-HRP Conjugate; final conc.: 1:2000 • Blocking Reagent: Roche Diagnostics GmbH, Cat.No.1 112589 for ELISA diluted 1:10 in TBS • ATP: Adenosine-5′-triphosphate, stock solution 10 mM, stock solution 10 mM (Roche Diagnostics GmbH, Cat.No. 127531) final conc.: 40 μM • TBS: Tris-buffered saline, 50 mM TRIS pH 7.5 (Roche Diagnostics GmbH, Cat.No. 708976), 150 mM NaCl (SIGMA, Cat.No. S-3014) • Wash buffer TBS-T: Tris-buffered saline, 50 mM TRIS pH 7.5 150 mM NaCl, containing 0.5% Tween20 • Kinase buffer: Tris-buffered saline, 50 mM TRIS pH 7.5, 100 mM NaCl, 60 mM MgCl2 (SIGMA Chemical Company, Cat.No. M-1028) • Lysis buffer: 50 mM TRIS pH 7.5 containing 1% Nonidet P40 (Roche Diagnostics GmbH, Cat.No.1754599) 0.5 % Deoxycholic acid (SIGMA Chemical Company, Cat.No. D-6750) final conc.: 1 mM 1 mM PMSF stock solution 70 mM (Roche Diagnostics GmbH, Cat.No.837091 40 μl/ml Complete (Roche Diagnostics GmbH, Cat.No. 1836145) Final conc.: 40 μ/ml • TMB: Tetramethylbenzidine (Intergen Company, Cat.No. 91000) • Samples: 10 mM in DMSO (stored at −20° C.), thawed at room temperature Procedure: […]

T1 sequence (P08581 25-1390): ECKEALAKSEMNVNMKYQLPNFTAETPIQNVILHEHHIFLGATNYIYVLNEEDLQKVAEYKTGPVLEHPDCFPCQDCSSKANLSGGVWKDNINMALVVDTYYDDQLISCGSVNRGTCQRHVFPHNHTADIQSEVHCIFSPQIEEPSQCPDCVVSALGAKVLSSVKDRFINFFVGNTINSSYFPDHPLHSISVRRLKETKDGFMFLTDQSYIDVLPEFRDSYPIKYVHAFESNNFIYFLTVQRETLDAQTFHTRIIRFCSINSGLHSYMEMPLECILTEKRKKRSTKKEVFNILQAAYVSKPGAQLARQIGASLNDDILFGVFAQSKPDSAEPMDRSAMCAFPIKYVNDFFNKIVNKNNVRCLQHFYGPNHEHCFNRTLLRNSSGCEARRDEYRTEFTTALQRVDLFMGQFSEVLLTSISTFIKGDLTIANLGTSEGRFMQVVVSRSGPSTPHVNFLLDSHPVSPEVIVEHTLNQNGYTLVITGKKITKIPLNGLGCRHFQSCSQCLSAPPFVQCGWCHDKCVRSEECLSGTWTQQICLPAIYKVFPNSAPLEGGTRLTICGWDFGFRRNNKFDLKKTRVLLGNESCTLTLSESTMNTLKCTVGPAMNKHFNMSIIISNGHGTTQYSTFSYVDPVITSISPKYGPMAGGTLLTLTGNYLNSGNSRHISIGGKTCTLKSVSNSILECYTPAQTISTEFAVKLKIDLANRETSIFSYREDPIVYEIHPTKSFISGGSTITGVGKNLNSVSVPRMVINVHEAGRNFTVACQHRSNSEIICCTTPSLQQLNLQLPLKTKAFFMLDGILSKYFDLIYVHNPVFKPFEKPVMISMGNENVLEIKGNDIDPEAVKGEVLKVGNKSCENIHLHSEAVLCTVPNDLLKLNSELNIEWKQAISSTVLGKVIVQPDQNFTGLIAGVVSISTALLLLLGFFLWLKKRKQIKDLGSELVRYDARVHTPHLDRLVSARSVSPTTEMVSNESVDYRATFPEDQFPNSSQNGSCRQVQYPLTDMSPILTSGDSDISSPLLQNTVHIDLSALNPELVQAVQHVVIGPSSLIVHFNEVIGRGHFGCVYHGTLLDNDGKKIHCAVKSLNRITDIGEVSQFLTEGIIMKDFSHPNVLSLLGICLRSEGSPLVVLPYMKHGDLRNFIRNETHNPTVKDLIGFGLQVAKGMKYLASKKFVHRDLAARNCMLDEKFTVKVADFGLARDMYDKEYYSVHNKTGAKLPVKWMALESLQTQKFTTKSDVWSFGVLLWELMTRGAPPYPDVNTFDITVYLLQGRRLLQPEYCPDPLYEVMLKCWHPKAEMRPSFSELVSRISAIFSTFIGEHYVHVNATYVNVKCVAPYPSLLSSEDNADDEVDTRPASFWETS

As for `OCCCNc1nccc(-c2[nH]c(-c3c(Cl)cc(OCCO)cc3Cl)nc2-c2cccc(OCc3ccncc3)c2)n1` [Example H3, 2-(2,6-dichloro-4-[2-hydroxyethoxy]phenyl)-4-(3-(4-pyridinylmethyloxy)phenyl)-5-(2-[3-hydroxypropylamino]pyrimidin-4-yl)-N-1H-imidazole], the IC50 is 54 nM.
The same measure for `OCCCNc1nccc(-c2[nH]c(-c3c(Cl)cncc3Cl)nc2-c2cccc(OCc3ccccc3)c2)n1` [Example H4, 2-(3,5-dichloropyridin-4-yl)-4-(3-benzyloxyphenyl)-5-(2-[3-hydroxypropyl-amino]pyrimidin-4-yl)-N-1H-imidazole]: 23 nM; for `OCCCNc1nccc(-c2[nH]c(-c3c(Cl)cc(OCCO)cc3Cl)nc2-c2cccc(OCc3ccccn3)c2)n1` [Example H1, 2-(2,6-dichloro-4-[2-hydroxyethoxy]phenyl)-4-(3-(2-pyridinylmethyloxy)phenyl)-5-(2-[3-hydroxypropylamino]pyrimidin-4-yl)-N-1H-imidazole]: 22 nM; for `OCCCNc1nccc(-c2[nH]c(-c3c(Cl)cc(OCCO)cc3Cl)nc2-c2cccc(OCc3cccnc3)c2)n1` [Example H2, 2-(2,6-dichloro-4-[2-hydroxyethoxy]phenyl)-4-(3-(3-pyridinylmethyloxy)phenyl)-5-(2-[3-hydroxypropylamino]pyrimidin-4-yl)-N-1H-imidazole]: 32 nM.
